We go through 39 molecules from patent US20080064053A1, “Genotoxicity Testing” (priority 2003, published 2008).

In data set [1] the test system is RNR3 regulatory element-GFP reporter. In words: RNR3-GFP reporter microplate assay (pGenRNR3). Format: cell-based, Saccharomyces cerevisiae. The note with it: yeast test strain transformed with pGenRNR3. The text has this:
In addition to the RAD54 vectors described in the previous Examples, the inventors constructed an FF18984 reporter strain containing a replicative plasmid harbouring an RNR regulatory element. The vectors pGenRNR2 or pGenRNR3 are shown in FIGS. 24 and 25, respectively, and contain the upstream non-coding DNA sequence of the RNR2 gene or RNR3 gene fused to the yeast-enhanced Aequorea victoria GFP gene. A control FF18984 strain containing an identical plasmid except that 2 base pairs have been removed at the start of the GFP gene, such that no GFP is made, was also examined.
In order to test the brightness of the reporter for RNR3 constructs, similar methodology was used as for RAD54 constructs, as described in the previous Examples, but using instead pGENRNR3.

The test system of data set [2] is RAD54 promoter-GFP reporter (pGen001). The note with it: for GSA genotoxicity result: GenT01 yeast, overnight at 25° C., 2% DMSO diluent, no S9.
The subject of data set [3] is yeast strain GenT01 (FF18984). In words: GreenScreen assay (GSA), cytotoxicity: final cell density by absorbance. The conditions noted are these: for Maximum Concentration (% v/v), suggested maximum tolerable solvent concentration: solvent in GSA test samples, toxic at higher concentrations. The protocol: The following standard protocol was followed. A 1 mM stock of the test chemical was prepared in 2% v/v aqueous DMSO, and used to make 2 identical dilution series across the microplate and a ‘control’ (see below). To achieve this, 150 microlitres of the test chemical solution were put into 2 microplate wells. Each sample was serially diluted by transferring 75 microlitres into 75 microlitres of 2% DMSO, mixing, and then taking 75 microlitres out and into the next well. This produced 9 serial dilutions of 75 microlitres each.
75 microlitres of the yeast suspension were added to each well of the diluted chemical: GenT01 to one series and GenC01 to the second, and to appropriate standards and controls. After the plates were filled, they were sealed using either a gas permeable membrane (Breath-easy, Diversified Biotech, USA) or a plastic lid, and then incubated without shaking, overnight at 25° C.
Following overnight incubation, fluorescence and absorbance data were collected from the microplates. […] Absorbance was measured through a 620 nm filter in both instruments. […] Fluorescence data were divided by absorbance data to give ‘brightness units’, the measure of average GFP induction per cell. […] In this way, one can distinguish between a small number of highly fluorescent cells and a large number of weakly fluorescent cells. In order to correct for induced cellular autofluorescence and intrinsic compound fluorescence, the brightness values for the GenC01 strain were subtracted from those of GenT01. This makes visual assessment of the data more reliable.
The cytotoxicity threshold is set at 80% of the cell density reached by the untreated control cells.
Table 12 lists chemicals/solvents that are often used with test samples, to promote dissolution etc. […] If these chemicals are used to dissolve compound stock solutions, they should also be included in the diluent used to make the compound dilution series. […] Interference of DMSO, a free radical scavenger, in the recombinogenic properties of several oxidising agents has previously been reported.

The next data set relates to bacteria. The conditions noted are these: cited from earlier work.
The conditions of data set [4]: in vivo; cited from earlier work.
Another data set deals with SOS umuC. The conditions noted are these: cited from earlier work.
The test system of the next data set is SOS lux. The note with it: S9 −; cited from earlier work.
The conditions of data set [5]: other genotoxicity tests and cancer studies; cited from earlier work.
The mark [6] stands for this setting: requires S9 metabolic activation.

Like-named read-outs stand apart in the source and are kept apart here.

Regarding `CNNC` [1,2-dimethylhydrazine], the “fluorescence induction by the reporter” value in data set [1] is “increases with increasing concentration”. The GSA genotoxicity result in data set [2] is recorded as “induced”.

On to `CC(O)CCl` (stereo not shown) [1-Chloro-2-propanol], for which the “Maximum Concentration (% v/v), suggested maximum tolerable solvent concentration” value (shortened to “Maximum Concentration (% v/v)”) in data set [3] is reported as 2 % v/v. In the case of `CC(=O)Nc1ccc2c(c1)Cc1ccccc1-2` [2-acetamidofluorene], the GSA genotoxicity result in data set [2] was “negative”. As to `Nc1cc([N+](=O)[O-])ccc1O` [2-amino-4-nitrophenol], the GSA genotoxicity result in data set [2] was “positive”. Besides, in the data set on bacteria (setting [6]), the Ames test result is on record as “positive”.

As for `Nc1ccc2cc3ccccc3cc2c1` [2-aminoanthracene], in data set [2], the GSA genotoxicity result is given as “negative”. Regarding `Nc1nc[nH]n1` [3-amino-1,2,4-triazole], the GSA genotoxicity result in data set [2] is reported as “positive”. The “cancer data / carcinogenicity” value in data set [4] is on record as “positive”.

As for `Nc1ccc(Oc2ccc(N)cc2)cc1` [4,4-oxydianiline], in data set [2], the GSA genotoxicity result is on record as “negative”. Same read-out and setting: next, `Nc1c2ccccc2nc2ccccc12` [9-aminoacridine]: “negative”; `c1ccc2c(c1)cc1ccc3cccc4ccc2c1c34` [BENZO[A]PYRENE, benzo[a]pyrene]: “positive”. Consider `O=Cc1ccccc1` [Benzaldehyde], for which the GSA cytotoxicity result in data set [3] (GenT01 yeast, overnight at 25° C.) is “cytotoxic”.

`N.N.[Cl][Pt][Cl]` [CISPLATIN, cisplatin]: the “GSA (M), lowest effective concentration (LEC)” value (“GSA (M)” for short) in data set [2] (S9 −) was 6.2e-05 M. In addition, the “SOS UMUC ASSAY (M), LEC” value in the data set with SOS umuC (S9 −) is 9e-07 M.

As to `ClC(Cl)(Cl)Cl` [Carbon tetrachloride], the “Maximum Concentration (% v/v)” value in data set [3] is listed as 2 % v/v. Take `C[S+](C)[O-]` [Dimethylsulfoxide]: the “Maximum Concentration (% v/v)” value in data set [3] is given as 5 % v/v. As for `CCOS(C)(=O)=O` [EMS, Ethyl methanesulfonate], the “fluorescence induction by the reporter” value in data set [1] was “increases with increasing concentration”. In the case of `CCO` [Ethanol], in data set [3], the “Maximum Concentration (% v/v)” value came to 2 % v/v. As for `OO` [HYDROGEN PEROXIDE], in data set [2] (Saccharomyces cerevisiae), the “GSA (M)” value came out at 0.002 M. Moreover, the “SOS LUX ASSAY (M), LEC” value with SOS lux is 5.9e-05 M.

`CO[C@@]12[C@H](COC(N)=O)C3=C(C(=O)C(C)=C(N)C3=O)N1C[C@@H]1N[C@@H]12` [MITOMYCIN C, mitomycin C]: the “SOS UMUC ASSAY (M), LEC” value in the data set with SOS umuC (S9 −) was 1e-08 M. In addition, the “SOS LUX ASSAY (M), LEC” value in the data set with SOS lux was 4.7e-08 M. Take `CO` [Methanol]: in data set [3], the “Maximum Concentration (% v/v)” value came out at 2 % v/v. As to `CCn1cc(C(=O)O)c(=O)c2ccc(C)nc21` [NALIDIXIC ACID], in data set [2] (S9 −), the “GSA (M)” value amounted to 1.6e-06 M. Regarding `Cc1cc2nc3ccc(N(C)C)cc3nc2cc1N.Cl` [Neutral Red], the GSA genotoxicity result in data set [2] is “positive”. The Ames test result in the data set with bacteria is on record as “positive”. Turning to `[N-]=[N+]=[N-]` [SODIUM AZIDE], the “GSA (M)” value in data set [2] (Saccharomyces cerevisiae) came out at 1e-05 M. Besides, in the data set on SOS umuC, the “SOS UMUC ASSAY (M), LEC” value is 0.0054 M. On to `C1CCOC1` [Tetrahydrofuran], for which, in data set [3], the “Maximum Concentration (% v/v)” value is listed as 2 % v/v.

`Nc1ccccc1` [aniline]: the GSA genotoxicity result in data set [2] is reported as “negative”. Also, the Ames test result with bacteria is recorded as “not detectable”; with bacteria (with and without S9) it was “negative”. For the same molecule, the “cancer data / carcinogenicity” value in data set [4] is on record as “carcinogens”. For the molecule `CN/C(=N/CCSCc1nc[nH]c1C)NC#N` [cimetidine], in data set [2], the GSA genotoxicity result was “positive”. In addition, in data set [5], the “corresponding data from other tests” value is on record as “no corresponding positive data”. In the case of `COc1cc2c(c(OC)c1OC)-c1ccc(OC)c(=O)cc1[C@@H](NC(C)=O)CC2` [colchicine], the GSA genotoxicity result in data set [2] is given as “responds”. Same read-out and setting: next, `Clc1ccc(COC(Cn2ccnc2)c2ccc(Cl)cc2Cl)cc1` (stereo not shown) [econazole]: “responds”; `Cc1c2ccncc2c(C)c2c1[nH]c1ccccc12` [ellipticine]: “responds”. For the molecule `CC[n+]1c(-c2ccccc2)c2cc(N)ccc2c2ccc(N)cc21` [ethidium bromide], the Ames test result with bacteria (setting [6]) is “positive”.

Take `COc1cc([C@@H]2c3cc4c(cc3[C@@H](O[C@@H]3O[C@@H]5CO[C@@H](C)O[C@H]5[C@H](O)[C@H]3O)[C@H]3COC(=O)[C@H]23)OCO4)cc(OC)c1O` [etoposide]: the GSA genotoxicity result in data set [2] is on record as “responds”. Still for that read-out and setting: next, `CN(C)CCN(Cc1cccs1)c1ccccn1` [methapyraline]: “induced”; `C[n+]1ccc(-c2cc[n+](C)cc2)cc1` [methyl viologen]: “induced”. With `CCCCC(CC)COC(=O)c1ccccc1C(=O)OCC(CC)CCCC` (stereo not shown) [phthalic acid bis(2-ethylhexyl) ester], in data set [2], the GSA genotoxicity result is on record as “induced”. Turning to `C=CCc1ccc2c(c1)OCO2` [safrole], the Ames test result with bacteria is “not detectable”. Also, the “cancer data / carcinogenicity” value in data set [4] was “carcinogens”.

As for `NC(N)=S` [thiourea], the Ames test result in the data set with bacteria is on record as “not detectable”. In addition, the “cancer data / carcinogenicity” value in data set [4] is listed as “carcinogens”. With `CCOC(N)=O` [urethane], the Ames test result with bacteria was “not detectable”. In data set [4], the “cancer data / carcinogenicity” value is reported as “carcinogens”. Turning to bleomycin, the GSA genotoxicity result in data set [2] is given as “induced”. On the same count and under the same terms, next, phleomycin: “induced”. For the molecule proflavin hemisulfate, the GSA genotoxicity result in data set [2] was “positive”. Besides, the Ames test result in the data set on bacteria (setting [6]) was “positive”.

With tritolyl phosphate, the “corresponding data from other tests” value in data set [5] was “no corresponding positive data”.
